Patent EP1125946A1, “Cell adhesion therapy through modulation of a Rap family member or of a GEF (guanine nucleotide exchange factor)” (Universitair Medisch Centrum Utrecht, priority 2000, dated 2001)

Assays:
full length CalDAG-GEF 1 = biological target: T1, full length CalDAG-GEF 1 (Homo sapiens, UniProt Q7LDG7); experiment: in vitro activation of Rap1 (mantGDP-loaded) by full length CalDAG-GEF versus mutant lacking the regulatory domain; format: biochemical; conditions: 100 µM calcium added; compared with mutant lacking the regulatory domain
T1 construct: To that end full length CalDAG-GEF 1 and a CalDAG-Gef mutants lacking the regulatory domain was compared
T1 sequence (Q7LDG7 1-609): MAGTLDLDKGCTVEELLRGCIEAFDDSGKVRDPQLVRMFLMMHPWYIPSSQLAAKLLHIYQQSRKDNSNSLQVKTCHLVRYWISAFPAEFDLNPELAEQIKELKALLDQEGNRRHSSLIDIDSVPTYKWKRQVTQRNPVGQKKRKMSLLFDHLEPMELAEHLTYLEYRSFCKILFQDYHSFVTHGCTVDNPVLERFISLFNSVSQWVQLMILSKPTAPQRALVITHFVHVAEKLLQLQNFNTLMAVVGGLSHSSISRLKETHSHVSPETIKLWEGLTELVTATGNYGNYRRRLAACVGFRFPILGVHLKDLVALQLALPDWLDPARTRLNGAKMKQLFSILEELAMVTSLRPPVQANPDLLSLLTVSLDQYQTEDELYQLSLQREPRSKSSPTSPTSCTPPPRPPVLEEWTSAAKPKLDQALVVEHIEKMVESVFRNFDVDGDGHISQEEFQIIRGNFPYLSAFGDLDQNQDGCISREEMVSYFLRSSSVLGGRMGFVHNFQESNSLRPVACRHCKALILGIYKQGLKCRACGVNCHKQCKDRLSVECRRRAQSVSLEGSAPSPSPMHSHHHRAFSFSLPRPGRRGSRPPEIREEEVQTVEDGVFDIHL
Protocol: We therefore investigated whether CalDAG-GEF was regulated by an auto-inhibitory domain. To that end full length CalDAG-GEF 1 and a CalDAG-Gef mutants lacking the regulatory domain was compared for in vitro activation of Rap1.
Figure 9. CalDAG-GEF contains an autoinhibitory domain regulated by calcium. Equal amounts of CalDAG-GEF and mutant CalDAG-GEF lacking the DAG and Ca binding domains were incubayed with mantGDP-loaded Rap1 and incubated in the presence or absence of 100 µM calcium.

LFA-1 = experiment: flow cytometry of mAB 24 epitope expression on Jurkat cells; format: cell-based; conditions: Jurkat cells coincubated with mAB 24 and 400 µM MnCl2; relative to unstimulated
Protocol: The anti-aL integrin antibody mAB 24 recognizes a conformation-dependent ligand-induced epitope on LFA-1, and induction of the mAB 24 epitope correlates with increased LFA-1 affinity for ICAM (Dransfield and Hogg, 1989). […] This conformational change can also be induced by LFA-1 exposure to Mn^2+, independently of "inside-out" signalling. […] Incubation of cells with mAB 24 at 4°C abolished CD31 and Mn^2+ -induced mAB 24 expression to background levels (data not shown), consistent with the temperature-sensitivity of the mAB 24 epitope (Dransfield and Hogg, 1989). […]
Flow cytometric analysis of transfected cells was performed by cotransfecting Jurkat JHMI cells with […] pCMV-EGFP C1 plasmid (Promega) and the indicated cDNA constructs. […] Fluorescence intensity of EGFP-transfected cells was determined using a FACsCaliber flow cytometer and CellQuest software (both from Becton Dickinson).
Figure 4. […] Cells were sequentially stained with anti-b2 integrin antibody L15 and rabbit anti-mouse Ig-RPE-Cy5 conjugate, and GFP-expressing cells analysed by flow cytometry. […] Alternatively, unstimulated cells were coincubated with mAB 24 and 400 µM MnCl2 (Mn). mAB 24 expression was assessed by flow cytometry, and expression levels normalized to 1 for unstimulated GFP-alone cells in each experiment. […]

[1] = biological target: catalytic domain of Epac1 (Homo sapiens, UniProt O95398)
catalytic domain of Epac1, sequence (O95398 44-371): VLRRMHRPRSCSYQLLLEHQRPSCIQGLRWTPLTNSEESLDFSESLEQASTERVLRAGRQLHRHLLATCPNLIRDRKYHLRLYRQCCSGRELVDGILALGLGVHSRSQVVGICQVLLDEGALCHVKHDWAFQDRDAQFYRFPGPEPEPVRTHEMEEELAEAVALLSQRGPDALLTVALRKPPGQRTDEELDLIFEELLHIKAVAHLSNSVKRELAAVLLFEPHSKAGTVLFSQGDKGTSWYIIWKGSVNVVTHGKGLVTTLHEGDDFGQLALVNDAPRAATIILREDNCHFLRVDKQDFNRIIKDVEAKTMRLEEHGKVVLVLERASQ
Protocol: Next we investigated whether a direct covalent linkage between the catalytic domain and the B-site is essential for this regulation, or whether they can function as separate domains. We therefore isolated the regulatory domains of both Epac1 and Epac2 and incubated them with the corresponding catalytic domains.
For purification of Glutathione S-transferase (GST) -fusion constructs all cDNAs were cloned in pGEX bacterial expression vectors. […] The GST fusion construct of Repac contains amino acids 2-580. The catalytic domain CalDAG-GEFI contains amino acids 3-422. The catalytically active PDZ-GEF1 construct contains amino acids 251-1001. The GST-PKA fusion construct used contained the R1a-subunit of Bovine PKA, lacking amino acids 1-91. Protein production was induced in Bl-21 bacteria using 100 nM IPTG for 20 h at room temperature. After protein production, bacteria were pelleted and lyzed in ice-cold PBS containing 1% Triton-X100 and protease inhibitors. The lysate was sonicated three times for 10 seconds and centrifuged at 10,000 x g to remove insoluble material. […]
Briefly, 100 nM of purified GTPase, loaded with fluorescently labeled 2',3'-bis (O) -N-methylantharanoloyl-guanosinediphosphate(mantGDP), was incubated, in the presence of excess unlabelled GDP, with 50 nM of purified GEF unless indicated differently. Release of mGDP was measured in realtime as a decrease in fluorescence. […]

[2] = biological target: catalytic domain of Epac2 (Mus musculus, UniProt Q9EQZ6)
catalytic domain of Epac2, sequence (Q9EQZ6 478-1011): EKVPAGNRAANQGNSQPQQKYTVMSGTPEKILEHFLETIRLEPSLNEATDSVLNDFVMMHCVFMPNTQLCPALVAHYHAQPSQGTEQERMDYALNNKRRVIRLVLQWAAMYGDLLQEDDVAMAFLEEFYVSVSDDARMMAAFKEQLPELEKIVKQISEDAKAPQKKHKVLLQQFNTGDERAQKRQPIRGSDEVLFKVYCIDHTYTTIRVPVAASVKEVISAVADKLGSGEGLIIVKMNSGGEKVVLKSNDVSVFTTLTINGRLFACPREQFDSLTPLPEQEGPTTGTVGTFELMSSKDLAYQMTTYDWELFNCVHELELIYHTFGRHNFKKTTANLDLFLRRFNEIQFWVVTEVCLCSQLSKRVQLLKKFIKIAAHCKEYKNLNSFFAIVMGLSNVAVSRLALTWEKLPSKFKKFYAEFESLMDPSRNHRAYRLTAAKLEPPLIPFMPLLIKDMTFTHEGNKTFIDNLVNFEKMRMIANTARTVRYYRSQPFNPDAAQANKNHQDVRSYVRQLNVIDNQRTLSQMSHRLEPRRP
catalytic domain of Epac2, sequence (Q9EQZ6 1-463 isoform Q9EQZ6-3 partner): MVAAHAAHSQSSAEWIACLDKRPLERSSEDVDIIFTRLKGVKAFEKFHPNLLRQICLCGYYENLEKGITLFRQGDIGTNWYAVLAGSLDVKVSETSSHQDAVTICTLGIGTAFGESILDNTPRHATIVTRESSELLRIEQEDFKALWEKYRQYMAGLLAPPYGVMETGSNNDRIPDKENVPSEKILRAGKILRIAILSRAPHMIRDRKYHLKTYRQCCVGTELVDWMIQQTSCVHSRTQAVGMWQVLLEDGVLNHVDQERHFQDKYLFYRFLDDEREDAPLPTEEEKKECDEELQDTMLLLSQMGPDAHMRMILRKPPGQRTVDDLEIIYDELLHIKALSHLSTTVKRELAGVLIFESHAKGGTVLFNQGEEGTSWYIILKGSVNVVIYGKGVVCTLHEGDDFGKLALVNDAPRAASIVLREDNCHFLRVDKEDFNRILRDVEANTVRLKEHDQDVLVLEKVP
Protocol: We therefore isolated the regulatory domains of both Epac1 and Epac2 and incubated them with the corresponding catalytic domains.
Protein production was induced in Bl-21 bacteria using 100 nM IPTG for 20 h at room temperature. After protein production, bacteria were pelleted and lyzed in ice-cold PBS containing 1% Triton-X100 and protease inhibitors. The lysate was sonicated three times for 10 seconds and centrifuged at 10,000 x g to remove insoluble material. GST-fusion proteins we purified from the cleared lysate by batch-wise incubation with glutathione-agarose beads (Sigma), eluted from the beads in buffer containing 50 mM Tris pH 7.5, 100 mM NaCl, 10% glycerol and 10mM glutathione and dialyzed for 20 hours in the same buffer without glutathione. When indicated, proteins were cleaved from the GST-tag by incubation with thrombin and purified by gelfiltration.
Briefly, 100 nM of purified GTPase, loaded with fluorescently labeled 2',3'-bis (O) -N-methylantharanoloyl-guanosinediphosphate(mantGDP), was incubated, in the presence of excess unlabelled GDP, with 50 nM of purified GEF unless indicated differently. Release of mGDP was measured in realtime as a decrease in fluorescence. To calculate reaction rates, single exponential functions were fit using the program Grafit3.0 (Eritacus). […]

Rap1 = experiment: GTP-bound GTPase pull-down with GST-RalGDS-RBD and immunoblotting in Jurkat cells; format: cell-based; conditions: Jurkat JHMI 2.2 cells; TPA 100 ng/ml, 5 minutes
Excerpt: (§1) To address which Ras family members, if any, might participate in CD31 signaling, we precipitated endogenous GTPases from lysates of CD31-stimulated Jurkat with GST fusion proteins of Ras family-binding domains (RBDs) of Raf and RalGDS, which bind with high selectivity and specificty to activated Ras and Rap GTPases, respectively (de Rooij and Bos, 1997; Franke et al., 1997). Immunoblotting of precipitated GTPases provides a qualitative representation of GTPase activation status following cell stimulation, corresponding to quantitative changes detected using classical GDP/GTP-binding ratio techniques. […] GTP-bound R-Ras was detected in Raf-RBD pull-downs only following longer exposures of films, reflecting the relatively low levels of R-Ras protein expression in Jurkat. […]
Figure 1. […] Bound GTPases were resolved on SDS-PAGE, transferred to PVDF membrane, and detected by immunoblotting with antibodies against the indicated proteins, followed by enhanced chemiuminescence (ECL). […] Fold activation of Rap1 compared to untreated cells was obtained by quantitating pixels from representative blots using Adobe Photoshop software. […] CD31 WT, CD31 GPI, and Y663/686F Jurkat cell lines were stimulated for two minutes with medium (-) or 10 µg/ml PECAM 1.3 antibody and activated Rap1 detected as in A. Results shown in each panel are representative of three independent experiments.

Ras = experiment: GTP-bound GTPase pull-down with GST-Raf-RBD and immunoblotting in Jurkat cells; format: cell-based; conditions: Jurkat JHMI 2.2 cells, time-course; TPA 100 ng/ml, 5 minutes
Excerpt: as §1
Figure 1. […] Bound GTPases were resolved on SDS-PAGE, transferred to PVDF membrane, and detected by immunoblotting with antibodies against the indicated proteins, followed by enhanced chemiuminescence (ECL). […] JHMI cells were activated for 2 minutes with medium (-), anti-CD3 antibody T3b (1:200) or the indicated anti-CD31 antibodies (10 µg/ml), and Rap1 activation detected as in A. Fold activation of Rap1 compared to untreated cells was obtained by quantitating pixels from representative blots using Adobe Photoshop software. […]

Compound: [Ca+2] [calcium]
- efficiency of full length CalDAG-GEF in activating Rap1 (full length CalDAG-GEF 1): became as efficient as the mutant

Compound: [Cl][Mn][Cl] [Mn^2+, MnCl2]
- increase in mAB 24 expression (LFA-1): 2.25-2.5 fold

Compound: Nc1ncnc2c1ncn2[C@@H]1O[C@@H]2COP(=O)(O)O[C@H]2[C@H]1O [cAMP]
- effect on inhibition of the catalytic domain by the regulatory domain [1]: abolishes the inhibitory effect
- effect on inhibition of the catalytic domain by the regulatory domain [2]: abolishes the inhibitory effect

Compound: CCCCCCCCCCCCCC(=O)O[C@@H]1[C@@H](C)[C@@]2(O)[C@@H](C=C(CO)C[C@]3(O)C(=O)C(C)=C[C@@H]23)[C@@H]2C(C)(C)[C@]12OC(C)=O [TPA]
- activation of Rap1 (Rap1): activated
- activation of Ras (Ras): activated
